Among the data in the COVID Moonshot data (paper PMC7615835) are IC50 values, retold here.

Where “and” joins values, the source holds several entries; their conditions need not be identical. Identical values can stand only once. Where only a bound is given, the exact number is not on record here.

For the assay, the target named is SARS-CoV-2 Main Protease (SARS-CoV-2) (UniProt P0DTD1).
For orientation: IC50 means the concentration that gives 50% inhibition. Lower therefore signals greater potency. The compound `O=C(Cc1cc(Cl)cc(Nc2ccc(I)cc2F)c1)Nc1cncc2ccccc12` gave an IC50 of 2.24 µM.

In the case of `Cc1cc(C)n2ncc(C(=O)Nc3ccc4ncsc4c3)c2n1`, the half-inhibitory concentration (IC50) was > 99.5 µM.

In the case of `CC(C)(C)c1csc(Nc2cc(Cl)cc(CC(=O)Nc3cncc4ccccc34)c2)n1`, the 50% inhibitory concentration (IC50) came to 2.09 µM.

`Cc1noc2ncc(CNc3ccc(-c4nnnn4C)cc3)cc12`: the IC50 was > 99.5 µM.

In the case of `CC(C)(C)c1ccc(N(C(=O)c2cocn2)C(C(=O)NCCc2cccc(F)c2)c2c(N3CCOCC3)nc3ccccn3c2=O)cc1` (configuration not stated), the IC50 was > 99.5 µM.

In the case of `O=C(Cc1cc(Cl)cc(NCc2ccc(Br)cc2F)c1)Nc1cncc2ccccc12`, the IC50 was 3.49 µM.

Regarding `COc1ccc2c(c1)c(N)nn2C(=O)Cc1cccc(Cl)c1`, the half-maximal inhibitory concentration (IC50) was > 99.5 µM.

`CC(C)(C)c1ccc(N(C(=O)c2cocn2)C(C(=O)NCc2cccnc2)c2cccnc2)cc1` (configuration not stated) showed a half-maximal inhibitory concentration (IC50) of 25.3 µM.

`O=C(Nc1cncc2ccccc12)C1CCOc2c(OCCC(F)(F)F)cc(Cl)cc21` (configuration not stated) returned an IC50 of 3.14 µM.

With `Cc1ccnnc1NC(=O)Cc1cccc(Cl)c1`, the IC50 was > 99.5 µM.

For the compound `O=C(Nc1nncn1C1CC1)C1CCS(=O)(=O)c2ccccc21` (configuration not stated), the half-maximal inhibitory concentration (IC50) is 68.9 µM.

For `CS(=O)(=O)CC1(C(=O)Nc2cncc3ccccc23)CCOc2ccc(Cl)cc21` (configuration not stated), the IC50 is 15.6 µM.

For `O=C(Nc1nncn1C1CC1)C1CCOc2ccc(Cl)cc21` (configuration not stated), the IC50 was 0.513 µM and 0.696 µM.

The compound `Cn1ccc2cncc(NC(=O)Cc3cccc(Cl)c3)c21` registered a 50% inhibitory concentration (IC50) of 1.45 µM.

`CC(C)Oc1ccc(N(C(=O)c2cocn2)C(C(=O)NCCc2cccc(F)c2)c2cccnc2)cc1` (configuration not stated) gave an IC50 of 0.609 µM.

`Cc1nn(-c2cc(Cl)cc(CC(=O)Nc3cncc4ccccc34)c2)c(N)c1Br` displayed a concentration for half-maximal inhibition (IC50) of 1.72 µM.

`CC1(CS(=O)(=O)N2Cc3ccc(Cl)cc3C(C(=O)Nc3cncc4cccc(Cl)c34)C2)CS(=O)(=O)C1` (configuration not stated) had a half-inhibitory concentration (IC50) of 0.957 µM.

With `COc1ccccc1OC1CN(C(=O)c2cc(=O)[nH]c3ccccc23)C1`, the 50% inhibitory concentration (IC50) is > 99.5 µM.

As to `CC(C)(C)OC(=O)[C@H]1CCCN1c1cc(Cl)cc(CC(=O)Nc2cncc3ccccc23)c1` (stereo in doubt), the IC50 came out at 2.52 µM.

As for `Cc1[nH]c2ccccc2c1C(=O)CSc1nc2cc(Cl)cnc2[nH]1`, the IC50 is > 99.5 µM.

`O=C(Nc1ccccc1)[C@H]1CN(C(=O)CCl)CCN1S(=O)(=O)c1ccsc1` (stereo in doubt) displayed an IC50 of 0.386 µM.

`O=C(Cc1cc(Cl)cc(Nc2ccc3c(c2)OCCO3)c1)Nc1cncc2ccccc12` had a half-inhibitory concentration (IC50) of 2.12 µM.

In the case of `COC(=O)c1cc(/C=c2\sc(=C(C#N)C#N)n(-c3cccc(C(F)(F)F)c3)c2=O)oc1C`, the IC50 was > 99.5 µM.

In turn, `CNC(=O)CN1C[C@@H](C(=O)Nc2cncc3cccc(Cl)c23)c2cc(Cl)ccc2C1=O` (stereo in doubt) had a half-inhibitory concentration (IC50) of 14.6 µM.

With `C=CC(=O)N(c1ccc(C2(C)CC2)cc1)C(C(=O)Nc1cccc(CC)c1)c1cccnc1` (configuration not stated), the concentration for half-maximal inhibition (IC50) is > 99 µM.

For the compound `O=C(Cc1cc(Cl)cc(NCc2ccc(Br)cc2)c1)Nc1cncc2ccccc12`, the IC50 is > 99.5 µM.

Take `Cn1cnnc1-c1cccc(NS(=O)(=O)c2c(Cl)nc3sccn23)c1`: the concentration for half-maximal inhibition (IC50) was > 99.5 µM.

`N#Cc1cnn(-c2ccccn2)c1Nc1cc(Cl)cc(CC(=O)Nc2cncc3ccccc23)c1` had a 50% inhibitory concentration (IC50) of 1.72 µM.

In turn, `COC1(CS(=O)(=O)N2Cc3ccc(Cl)cc3C(C(=O)Nc3cncc4ccc(C(C)(C)O)cc34)C2)CC1` (configuration not stated) showed an IC50 of 1.77 µM.

For the compound `CC(C)(C)c1ccc(N(C(=O)c2cnco2)C(C(=O)NCCc2cccc(F)c2)c2cccnc2)cc1` (configuration not stated), the concentration for half-maximal inhibition (IC50) came out at 4.78 µM.

For the compound `CC(NC(=O)c1cc2n(n1)CCO2)(C(=O)Nc1cncc2ccccc12)c1ccc(Cl)c(Cl)c1` (configuration not stated), the IC50 is 6.89 µM and 10.5 µM.

Regarding `O=C(Nc1cncn1-c1cccnc1)C1CCOc2ccc(Cl)cc21` (configuration not stated), the IC50 was > 99.5 µM.

As to `O=C(Nc1cncc2ccccc12)[C@H]1CN(S(=O)(=O)CC2CS(=O)(=O)C2)Cc2ccc(Cl)cc21` (stereo in doubt), the IC50 was 0.0505 µM and 0.108 µM and 0.0737 µM.

For the compound `COCCN(C)S(=O)(=O)N1Cc2ccc(Cl)cc2C2(CCN(c3cncc4ccccc34)C2=O)C1` (configuration not stated), the IC50 came to 0.993 µM.

With `O=C(Cc1cc(Cl)cc(Nc2cc(F)c(Br)c(F)c2)c1)Nc1cncc2ccccc12`, the IC50 came to 2.05 µM.

As for `CN(Cc1cccc([N+](=O)[O-])c1)c1cc(Cl)cc(CC(=O)Nc2cncc3ccccc23)c1`, the concentration for half-maximal inhibition (IC50) was determined as 1.53 µM.

In turn, `CS(=O)(=O)Cc1ccc(N(C(=O)c2cnc[nH]2)C(C(=O)NCCc2cccc(F)c2)c2cccnc2)cc1` (configuration not stated) gave an IC50 of 41.1 µM.

`O=C(NCCc1cccc(F)c1)C(c1cccnc1)N(C(=O)c1cnc[nH]1)C1CCC2OCCC2C1` (configuration not stated): the 50% inhibitory concentration (IC50) is > 99 µM.

Take `COCCCNC(=O)C(c1cccnc1)N(C(=O)c1cocn1)c1ccc(C(C)(C)C)cc1` (configuration not stated): the IC50 amounted to 8.79 µM.

In the case of `CC(C(=O)NS(=O)(=O)c1cnn(-c2cccc(C(F)(F)F)c2)c1)n1cnc(C#N)n1` (configuration not stated), the IC50 is > 99.5 µM.

`O=C(NCCc1cccc(F)c1)C(c1cccnc1)N(C(=O)c1cocn1)c1ccc(N2CCCC2=O)cc1` (configuration not stated) registered an IC50 of 76.6 µM.

As for `Cc1nc2cc(C(=O)NNc3nc4ccncc4s3)ccc2o1`, the IC50 was > 99.5 µM.

Regarding `CC(=O)NCCc1c[nH]c2ccc(O)cc12`, the IC50 was > 99.5 µM.

Regarding `COc1cc2cncc(NC(=O)Cc3cccc(Cl)c3)c2cc1OC`, the IC50 was > 99.5 µM.

As to `CCC(=O)Nc1ccc(N(Cc2ccccc2)C(=O)Nn2nnc3ccccc32)cc1`, the IC50 is 3.59 µM.

As to `O=C(NCCc1ccccc1)[C@H]1CN(C(=O)CCl)CCN1S(=O)(=O)c1ccsc1` (stereo in doubt), the IC50 stood at 2.43 µM.

The compound `Cc1ccncc1NC(=O)Cc1cc(Cl)cc(NS(C)(=O)=O)c1` came in with an IC50 of 21.8 µM.

Compound `O=C(Cc1ccc(Cl)c(Cl)c1)Nc1cncc2ccncc12` registered an IC50 of 1.79 µM.

`CC1(CS(=O)(=O)N2Cc3ccc(Cl)cc3[C@@H](C(=O)Nc3cncc4ccccc34)C2)CC1` (stereo in doubt) returned an IC50 of 4.58 µM.

With `O=C(Nc1ccc2c(=O)cc[nH]c2c1)c1ccc2ccncc2c1`, the IC50 was > 99.5 µM.

Compound `O=C(Cc1cc(Cl)cc(-n2c(C3CCNCC3)nc3ccccc32)c1)Nc1cncc2ccccc12` showed an IC50 of 2.24 µM.

`O=C(Cc1cc(Cl)cc(Nc2c(Cl)cncc2Cl)c1)Nc1cncc2ccccc12` came in with a half-inhibitory concentration (IC50) of 2.04 µM.

Turning to `N#Cc1ccc(N(C(=O)c2ccco2)C(C(=O)NCCc2cccc(F)c2)c2cccnc2)cc1` (configuration not stated), the concentration for half-maximal inhibition (IC50) was 10.4 µM.

Take `CC(C)NC(=O)CN1CC(C(=O)Nc2cncc3cc(S(C)(=O)=O)ccc23)c2cc(Cl)ccc2C1=O` (configuration not stated): the half-maximal inhibitory concentration (IC50) turned out to be 0.332 µM.

In the case of `O=C(Nc1cncc2sc(Cl)cc12)C1CCOc2ccc(Cl)cc21` (configuration not stated), the 50% inhibitory concentration (IC50) came out at 1.03 µM.

`O=C(Cc1cccc(Cl)c1)Nc1noc2ncccc12`: the IC50 was > 99.5 µM.

As to `O=C(Nc1cncc2ccncc12)[C@@H]1CCOc2cc(F)c(Cl)cc21` (stereo in doubt), the 50% inhibitory concentration (IC50) is 0.397 µM and 0.849 µM.

In the case of `Cc1ccncc1NC(=O)Cc1cc(Cl)cc(OCc2cc(-c3ccc(Cl)cc3)no2)c1`, the 50% inhibitory concentration (IC50) was > 99.5 µM.

For `O=C(NCCc1cccc(F)c1)C(c1cccnc1)N(C(=O)c1cocn1)C1COc2ccccc2C1` (configuration not stated), the IC50 was > 99.5 µM.

For the compound `C=CC(=O)N(c1ccc(C(F)(F)F)cc1)C(C(=O)Nc1c(C)cccc1CC)c1cccnc1` (configuration not stated), the IC50 came out at 97.8 µM.

`COc1ccc(CNCC2(C(=O)Nc3cncc4ccccc34)CCOc3ccc(Cl)cc32)cc1OCC(N)=O` (configuration not stated) showed a concentration for half-maximal inhibition (IC50) of 11.5 µM.

In turn, `N#CC1(CS(=O)(=O)N2Cc3ccc(Cl)cc3C3(CCN(c4cncc5ccccc45)C3=O)C2)CCCC1` (configuration not stated) showed a 50% inhibitory concentration (IC50) of 0.244 µM.
